Entries after “also recorded” stand apart in the source; their conditions may differ.
Legend:
[1] = pH-potentiometric titration, Fe3+ complex; type: physicochemical; details: 310 K, I=0.1 M NaCl
Method: The aqueous solutions thermodynamics of BBG and its corresponding complexes of Fe^3+, Cu^2+, and Zn^2+ were interrogated through pH-potentiometric titration of BBG (L) in the absence and presence of 1 molar equivalent of Fe^3+, Cu^2+, or Zn^2+, FIG. 13A.
pH-potentiometric measurements were performed using an Orion ROSS Ultra pH electrode and temperature-controlled reaction vessel held at 310 K. A standardized solution of 0.10 M NaOH was used as the titrant. The electrode was calibrated prior to each titration by titrating a standardized HCl(aq) solution at ionic strength 0.10 using NaCl as the inert electrolyte with the standardized NaOH titrant. A working slope and intercept were generated by plotting mV as a function of calculated pH, which enabled direct conversion of electrode readings to [H^+] during sample titrations. pH values recorded during the titrations refers to hydrogen ion concentration. All titration samples were prepared in solutions of 0.10 M NaCl in distilled, deionized water. Ligand solutions were prepared by dissolving a weighed quantity into water and concentration was determined from the effective weight of the ligand and confirmed by the quantity of NaOH required to consume 1 molar equivalent of ligand proton. […]

[2] = Pharmacokinetics by dynamic magnetic resonance imaging; type: in vivo; details: mouse
Source text: Fe-BBG is paramagnetic, which enables us to monitor Fe-BBG blood clearance and excretion through dynamic magnetic resonance imaging.

[3] = target: apo-transferrin (Homo sapiens, UniProt P02787); assay: Fe delivery to apo-transferrin (fluorescence quenching, urea gel electrophoresis); type: biochemical
Method: Incubation with FPC was positive control, the stable compound Fe-PyC3A was negative control (Conditions: 50 mM HEPES buffer supplemented with 25 mM bicarbonate, pH 7.4, 37° C.).
Transfer of Fe from Fe-BBG to apo-transferrin can be monitored through quenching of the apo-transferrin intrinsic fluorescence.
Transfer of Fe from Fe-BBG to apo-transferrin can also be monitored using urea gel electrophoresis.

[4] = Stability of Fe-BBG against trans-chelation by endogenous chelators (UV-vis); type: physicochemical
Source text: In other words, the ligand BBG binds to Fe^3+ with an estimated 230±40 times higher affinity than citrate.

[5] = system: Tmprss6 knockout mice; assay: Therapeutic efficacy in mouse model of iron refractory iron deficiency anemia; type: in vivo
Method: Tmprss6 knockout mice received 29 intraperitoneal injections each containing 25 μg Fe as Fe-BBG (1.3±0.18 μg Fe per gram body weight, N=5 mice, 2 male, 3 female) or containing saline (placebo, N=5 mice, 2 male, 3 female) over 15 days. The cumulative dose of Fe was 725 μg Fe (37±0.53 μg Fe per gram body weight). The mice were euthanized 120 min after the final injection. Blood was harvested for measurement of complete blood counts, and nonheme Fe parameters. Bone marrow and liver tissue were analyzed by qPCR for expression of genes related to erythropoietic activity, Fe exposure, oxidative stress, and inflammation, the data are tabulated in FIG. 15. Clinical chemistry was also recorded, see Example 16 below. FIG. 15 data are shown as mean±standard deviation. Statistical differences between groups were determined by two-tailed Student's t-test for normally distributed values or Mann-Whitney (/test for non-normally distributed values. Significant differences are indicated by *P<0.05, **P<0.01, ****P<0.0001.

[6] = Ascorbate reduction challenge (UV-vis); type: physicochemical; details: 0.1 mM Fe-BBG, 0.1 mM sodium ascorbate, pH 7.4
[7] = 29 i.p. injections of 25 μg Fe over 15 days, vs placebo
[8] = 120 min after final injection, vs placebo

Sequence of apo-transferrin (P02787 20-698): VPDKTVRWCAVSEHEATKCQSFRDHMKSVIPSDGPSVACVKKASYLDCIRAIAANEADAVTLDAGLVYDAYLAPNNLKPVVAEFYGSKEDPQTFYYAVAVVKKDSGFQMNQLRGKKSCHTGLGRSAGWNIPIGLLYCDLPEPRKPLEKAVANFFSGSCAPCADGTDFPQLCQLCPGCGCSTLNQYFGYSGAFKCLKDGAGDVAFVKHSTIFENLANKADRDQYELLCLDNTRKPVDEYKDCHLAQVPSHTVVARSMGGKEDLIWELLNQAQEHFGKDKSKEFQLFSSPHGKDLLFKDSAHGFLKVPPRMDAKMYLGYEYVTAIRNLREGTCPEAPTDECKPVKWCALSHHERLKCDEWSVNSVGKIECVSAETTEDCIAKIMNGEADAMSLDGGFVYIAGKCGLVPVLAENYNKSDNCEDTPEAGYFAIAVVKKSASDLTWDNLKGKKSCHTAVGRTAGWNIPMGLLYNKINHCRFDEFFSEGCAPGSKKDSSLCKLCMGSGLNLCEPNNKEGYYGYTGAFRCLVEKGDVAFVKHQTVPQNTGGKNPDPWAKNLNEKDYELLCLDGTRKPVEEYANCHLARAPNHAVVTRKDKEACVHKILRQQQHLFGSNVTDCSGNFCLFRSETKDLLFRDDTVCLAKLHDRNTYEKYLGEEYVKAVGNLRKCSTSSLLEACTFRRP

- conditional pH 7.4 stability constant log KFeL PH 7.4 [1]: 19.51
- blood elimination half life (vena cava MR signal) ([2]; 0.14 mmol/kg injection, monoexponential fit): 5.5 ± 2.8 min
- hepatobiliary excretion (liver, gallbladder, bowel enhancement) ([2]; MRI): partial hepatobiliary excretion
- Fe^3+ transfer to apo-transferrin ([3]; 50 mM HEPES, 25 mM bicarbonate, pH 7.4, 37° C.): stoichiometric transfer
- Fe^3+ transferred to apo-transferrin ([3]; urea gel, 10 μM apo-transferrin, 0-10 equiv Fe-BBG): 2 molar equivalents
- stability against trans-chelation by endogenous chelators [4]: stable against trans-chelation reactions
- Kcomp for challenge with citrate ([4]; 0-10 molar equivalents citrate, absorbance at 465 nm, pH 7.4): 0.006±0.002
- UV-vis traces in presence of competing chelators ([4]; 0.1 mM Fe-BBG, up to 100 molar equivalents bicarbonate, acetate, lactate, phosphate, pH 7.4 50 mM HEPES): remain unchanged
- clearance of Fe-BBG from serum ([5]; 120 min after the final injection): cleared entirely
- 462 nm absorption peak upon challenge with ascorbate [6]: remains unchanged
Compound: O.O.O=C([O-])CC[C@H]1C(=O)[O][Fe]2[O]c3ccccc3CN1Cc1ccccc1[O]2 [Fe-BBG]
- renal excretion (kidney enhancement) ([2]; MRI): rapid elimination through the kidneys; also recorded: rapid urinary excretion
- hematocrit [5, 7]: increased significantly
- hemoglobin [5, 7]: significant elevation
- mean corpuscle volume [5, 7]: significantly increased
- red cell width [5, 7]: significantly increased
- mean % TSAT increase [5, 8]: ~7 fold
- serum Fe [5, 8]: elevated
- total iron binding capacity (TIBC) [5, 8]: unchanged relative to placebo
- unbound iron binding capacity (UIBC) [5, 8]: concomitant decrease
- bone marrow erythroferrone (Erfe) expression ([5]; qPCR): significantly downregulated
- glycophorin A (GypA) expression ([5]; qPCR, bone marrow): downregulated
- transferrin receptor type 1 (Tfrc) expression ([5]; qPCR, bone marrow): downregulated
- other hematology parameters ([5]; vs placebo): No noteworthy differences

From patent US20260132160A1, “IRON REPLACEMENT TREATMENTS” (The General Hospital Corporation, priority 2022, published 2026)
